pIC50: −log10 of the molar value.
Tests used:
[1] = tested on: cathepsin L; assay: Inhibition of activated cathepsin L secreted in DU-145 cell conditioned media; format: cell-based; conditions: compound 20 μM, replicate samples a-c
Procedure: (§1) A prostrate carcinoma derived cell line (DU-145) was maintained in free phenol red DMEM supplemented with 10% fetal bovine serum, 1% glutamine, 1% glutamax, 1% Penicillin-Streptomycin and 1 mM sodium pyruvate, at 37° C. in an atmosphere of 95% air/5% CO2. DU145 was plated at 4×10^6 cells/10 cm Petri dish for dense, super confluent density. These cultures were incubated for 3 days before collection. Twenty-four hours prior to harvesting, cells were fed with serum-free media or serum-free media containing inhibitors at a final concentration of 20 μM. On the day of harvesting, the serum-free medium was collected for assay of Cathepsin L activity secreted in the medium. The cells were rinsed in cold PBS (pH 7.2) and collected in cold PBS containing […]. The cells were lysed using a Sonicator (Misonix 3000) at medium setting with pauses at 0° C. for temperature equilibration. Then the homogenate was centrifuged at 13,000×g for 20 min and the supernatant saved. […] Fluorescence was measured in a Fluoro Max 2 (Jobin Yvon) spectrofluorometer at an excitation wavelength of 355 nm and an emission wavelength of 460 nm. The substrate is hydrolyzed by cathepsin L and to a smaller extent by cathepsin B, therefore the activity is referred to as cathepsin L+B activity. Data analysis was performed using Prism software (GraphPad version 4). Data corresponding to cathepsin L activity (after activation) in cell conditioned media in the presence of Compound 14 (20 μM) is summarized in Table 3 below. Data corresponding to cathepsin L activity (after activation) in cell conditioned media in the presence of Compound 27 (20 μM) is summarized in Table 4 below.

[2] = biological target: T1, Human liver cathepsin L (Homo sapiens, UniProt P07711); assay: Cathepsin L inhibition in vitro (Z-FR-AMC fluorescence); format: biochemical; conditions: Table A; 1 nM human liver cathepsin L, pH 5.5, 25° C., 50 μM Z-FR-AMC; read-out: Cat L IC50
T1 construct: from tissue; host or cells: human liver
T1 sequence (P07711 114-333): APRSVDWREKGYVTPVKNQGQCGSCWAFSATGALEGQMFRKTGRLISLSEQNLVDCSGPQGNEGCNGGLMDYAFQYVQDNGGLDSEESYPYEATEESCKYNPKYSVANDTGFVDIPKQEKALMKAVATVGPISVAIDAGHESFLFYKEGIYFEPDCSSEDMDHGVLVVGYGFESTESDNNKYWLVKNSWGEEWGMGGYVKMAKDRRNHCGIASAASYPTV
Procedure: Human liver cathepsin L (1 nM) was incubated in 50 mM sodium acetate buffer, pH 5.5 containing 1 mM EDTA, 2 mM DTT, 0.001% (v/v) brij 35 with potential inhibitors at 20 different concentrations (from 0.05 nM to 50 μM) at 25° C. for 5 minutes before 100 μL substrate (benzyloxycarbonyl-L-phenylalanyl-L-arginyl-7-amido-4-methylcoumarin, abbreviated as Z-FR-AMC, 50 μM in final assay condition) was added to the enzyme-inhibitor mixture; total volume was 200 μL. Controls were performed using enzyme alone, substrate alone, and enzyme with DMSO. […] Spectra were taken at 3-sec intervals for 3 minutes. IC50 values were determined by non-linear regression analysis using vo(inh)=VMAX/{1+10(logIC50−x)*Hillslope} and Prism software (GraphPad).

[3] = biological target: Cruzain (Trypanosoma cruzi, UniProt P25779); assay: biochemical; format: biochemical; conditions: Table A; 0.1 nM cruzain, pH 5.50, 25° C., 10 μM Z-Phe-Arg-AMC
Cruzain, sequence (P25779 123-467): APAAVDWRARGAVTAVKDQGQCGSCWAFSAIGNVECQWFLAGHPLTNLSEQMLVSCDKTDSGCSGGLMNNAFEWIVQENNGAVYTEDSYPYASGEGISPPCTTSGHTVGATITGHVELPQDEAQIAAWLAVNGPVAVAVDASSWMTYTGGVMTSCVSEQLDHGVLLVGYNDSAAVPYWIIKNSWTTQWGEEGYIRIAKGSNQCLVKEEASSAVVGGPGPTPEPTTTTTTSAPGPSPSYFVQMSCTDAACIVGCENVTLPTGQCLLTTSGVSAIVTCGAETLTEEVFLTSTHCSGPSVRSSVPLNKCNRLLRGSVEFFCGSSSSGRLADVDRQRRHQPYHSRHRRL
Procedure: Cruzain (0.1 nM) in 100 mM sodium acetate buffer (pH 5.50) containing 5 mM DTT was preincubated for 5 min at 25° C. with inhibitor.

[4] = biological target: Cat B (Homo sapiens, UniProt P07858); assay: Cathepsin B inhibition in vitro; format: biochemical; conditions: Table A; read-out: Cat B IC50
Procedure: For in vitro cysteine protease inhibition determinations, a compound's effectiveness can be given by an IC50 value. In these assays, the enzyme to be inhibited (e.g., a cruzain or cruzipain, a rhodesain, a brucipain, a congopain, a falcipain, CPB2.8 Delta CTE, a cathepsin-L, cathepsin-B, a cathepsin-H, a cathepsin-K, a cathepsin-S) is first incubated with varying concentrations (about 20-50,000 nM) of a test compound. To this is added a short peptide substrate of the enzyme of 1 to 10 amino acids, usually a di- or tri-peptide substrate, which is labeled with either a fluorogenic or chromogenic moiety. An exemplary chromogenic moiety is p-nitro-anilide (pNA). […] Exemplary peptide substrates include Phe-Arg, Arg-Arg, Phe-Arg-X (X=Ala, Arg), and Phe-X-Ser-Arg-Gln (X=Arg, 4-aminomethyl-phenylalanine (Arm), 4-aminomethyl-N-isopropyl-phenylalanin-e (laf), 4-piperidinyl-alanine (Ppa) or 4-aminocyclohexyl-alanine (Aca)). Cleavage of the labeled substrate induces a chromogenic or fluorescent signal that is measured using spectrophotometer or a spectrofluorometer, respectively. Signals induced in the presence of varying concentrations of test compound are measured in comparison to a positive control of enzyme and substrate and a negative control of enzyme in diluent (e.g., DMSO). Spontaneous cleavage of substrate is measured in controls with substrate alone. IC50 values are determined graphically using compound inhibitor concentrations in the linear portion of a plot of inhibition versus log [I].

[5] = tested on: cathepsin L; assay: Inhibition of activated cathepsin L in DU-145 cell lysates; format: cell-based; conditions: DU-145 cell lysates preincubated for 24 h with compound, following removal of media, replicate samples a-c; for activity (cathepsin L activity after activation): control 6.93E−03; for cps (cathepsin L activity after activation): control 26950
Procedure: as §1, with “cell lysates preincubated for 24 h with” for “cell conditioned media in the presence of”, “14 and following the removal of media” for “14 (20 μM)”, “Table 5” for “Table 3”, “27 and following the removal of media” for “27 (20 μM)”, “Table 6” for “Table 4”

## NC(=S)NN=C(c1cccc(Br)c1)c1cccc(Br)c1 [Compound 14, Bis(3-bromophenyl) ketone thiosemicarbazone]
[1]; control 1.50E−03, listed as 14a
  activity (cathepsin L activity after activation): 0.000186 µM/s
[1]; control 1.50E−03, listed as 14b
  activity (cathepsin L activity after activation): 0.000165 µM/s
[1]; control 1.50E−03, listed as 14c
  activity (cathepsin L activity after activation): 0.000127 µM/s
[1]; control 5848, listed as 14a
  cps (cathepsin L activity after activation): 722.5 cps
[1]; control 5848, listed as 14b
  cps (cathepsin L activity after activation): 641.2 cps
[1]; control 5848, listed as 14c
  cps (cathepsin L activity after activation): 495 cps
[2]
  pIC50: 8.82
[3]
  pIC50: 7.62
[4]
  pIC50: < 5.52
[5]; listed as 14a
  activity (cathepsin L activity after activation): 0.00161 µM/s
  cps (cathepsin L activity after activation): 6259 cps
[5]; listed as 14b
  activity (cathepsin L activity after activation): 0.00144 µM/s
  cps (cathepsin L activity after activation): 5608 cps
[5]; listed as 14c
  activity (cathepsin L activity after activation): 0.00129 µM/s
  cps (cathepsin L activity after activation): 5003 cps
